Data published in ChEMBL document CHEMBL1144976, “Biological activities of alpha-mangostin derivatives against acidic sphingomyelinase” (Bioorg Med Chem Lett, 2003).

Assays:
[1] = molecular target: T1, Sphingomyelin phosphodiesterase 2 (Homo sapiens, UniProt O60906); experiment: Inhibitory activity against NSMase (neutral sphingomyelinase)
T1 sequence (O60906 whole entry): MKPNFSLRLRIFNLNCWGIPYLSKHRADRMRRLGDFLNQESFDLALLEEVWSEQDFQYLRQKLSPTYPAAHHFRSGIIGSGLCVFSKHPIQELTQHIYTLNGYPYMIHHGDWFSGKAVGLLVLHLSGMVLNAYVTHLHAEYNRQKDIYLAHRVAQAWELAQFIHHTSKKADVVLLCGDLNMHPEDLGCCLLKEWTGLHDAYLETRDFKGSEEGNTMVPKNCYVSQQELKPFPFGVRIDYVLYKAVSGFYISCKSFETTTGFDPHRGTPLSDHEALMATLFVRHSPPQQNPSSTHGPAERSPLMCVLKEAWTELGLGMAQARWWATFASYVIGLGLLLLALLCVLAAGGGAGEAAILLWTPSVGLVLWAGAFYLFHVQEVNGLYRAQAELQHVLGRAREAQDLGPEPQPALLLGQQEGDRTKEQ

[2] = molecular target: T2, Sphingomyelin phosphodiesterase (Homo sapiens, UniProt P17405); experiment: Inhibitory activity against Acid sphingomyelinase
T2 sequence (P17405 whole entry): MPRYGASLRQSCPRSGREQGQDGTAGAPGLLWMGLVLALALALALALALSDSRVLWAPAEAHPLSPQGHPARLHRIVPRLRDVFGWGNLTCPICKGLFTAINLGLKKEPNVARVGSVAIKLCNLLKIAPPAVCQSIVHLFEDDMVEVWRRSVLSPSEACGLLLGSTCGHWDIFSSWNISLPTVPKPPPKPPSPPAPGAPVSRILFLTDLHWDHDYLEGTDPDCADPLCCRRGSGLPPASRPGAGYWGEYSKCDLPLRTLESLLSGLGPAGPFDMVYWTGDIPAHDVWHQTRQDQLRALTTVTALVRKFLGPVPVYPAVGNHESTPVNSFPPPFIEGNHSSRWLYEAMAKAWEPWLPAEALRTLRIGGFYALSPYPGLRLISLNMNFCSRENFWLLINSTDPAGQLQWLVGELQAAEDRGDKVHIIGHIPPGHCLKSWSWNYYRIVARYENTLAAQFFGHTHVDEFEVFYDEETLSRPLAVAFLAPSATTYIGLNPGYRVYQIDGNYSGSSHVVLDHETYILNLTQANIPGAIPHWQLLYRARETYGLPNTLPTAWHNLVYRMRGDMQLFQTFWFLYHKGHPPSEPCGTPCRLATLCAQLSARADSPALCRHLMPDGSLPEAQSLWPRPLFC

| IC50 [1] [µM] | IC50 [2] [µM] | Compound |
| --- | --- | --- |
| > 292 | 101 | COc1cc2c(=O)c3c(O)c(CC=C(C)C)c(O)cc3oc2cc1O |
| 26 | 15.3 | COc1c(O)cc2oc3cc(O)cc(O)c3c(=O)c2c1CC=C(C)C |
| 113 | 38.5 | COc1c(O)cc(O)c(C(=O)c2c(O)cc(O)c(CC=C(C)C)c2O)c1CC=C(C)C |
| 113 | 12.5 | COc1c(O)cc2oc3cc(O)c(CC=C(C)C)c(O)c3c(=O)c2c1CC=C(C)C [MANGOSTIN] |

Second part, the compound before the results:

| Compound | IC50 [1] [µM] | IC50 [2] [µM] |
| --- | --- | --- |
| COc1cc(C(=O)c2c(O)cc(O)c(CC=C(C)C)c2O)c(O)cc1O | 201 | 66.6 |
| COc1c(O)cc(O)c(C(=O)c2c(O)cc(O)cc2O)c1CC=C(C)C | 28.3 | 14.7 |
